In ChEMBL document CHEMBL6182905, “Fluorinated sulfonamide-flavonoid derivatives as novel Keap1-Nrf2 inhibitors: Potent induction of cytoprotective gene HO-1 in vivo” (Eur J Med Chem, 2025):
Active and inactive are the calls of the source. No cut-off for these calls is given here.

Experiments:
[1] = molecular target: T1, Nuclear factor erythroid 2-related factor 2 (Mus musculus) (UniProt Q60795); test: Activation of Nrf2 in LPS-stimulated mouse AML12 cells assessed as upregulation of Nrf2 protein level incubated for 16 hrs by Western blot analysis; type: cell-based; settings: filed as activator, dose 0.5-10 µM
T1 sequence (whole entry): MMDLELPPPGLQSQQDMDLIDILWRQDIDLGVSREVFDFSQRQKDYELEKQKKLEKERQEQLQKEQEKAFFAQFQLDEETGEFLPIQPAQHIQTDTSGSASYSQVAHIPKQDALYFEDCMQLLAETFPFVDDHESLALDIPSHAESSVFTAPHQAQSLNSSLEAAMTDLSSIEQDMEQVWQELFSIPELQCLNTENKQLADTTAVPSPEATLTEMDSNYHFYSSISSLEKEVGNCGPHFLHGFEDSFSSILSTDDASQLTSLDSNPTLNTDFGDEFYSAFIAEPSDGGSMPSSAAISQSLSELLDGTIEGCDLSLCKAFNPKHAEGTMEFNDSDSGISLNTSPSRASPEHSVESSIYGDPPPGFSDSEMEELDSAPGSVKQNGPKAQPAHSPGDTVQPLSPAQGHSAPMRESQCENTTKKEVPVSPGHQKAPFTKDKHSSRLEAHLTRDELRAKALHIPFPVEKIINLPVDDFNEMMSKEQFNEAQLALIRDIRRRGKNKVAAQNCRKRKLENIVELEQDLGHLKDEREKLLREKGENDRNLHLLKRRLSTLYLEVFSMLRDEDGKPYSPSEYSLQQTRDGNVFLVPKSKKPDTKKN

[2] = tested on: Mus musculus; test: Anti-inflammatory activity in APAP-induced C57BL/6 mouse model of acute liver injury assessed as reduction in TNFalpha mRNA level in liver at 12.5 to 25 mg/kg, ip measured after 12 hrs by ELISA; type: functional, organism-based; settings: dose 12.5-25 mg/kg
[3] = Absolute oral bioavailability in Sprague-Dawley rat at 10 mg/kg; type: ADME, organism-based; settings: in vivo
[4] = Tmax in Sprague-Dawley rat at 10 mg/kg, po; type: ADME, organism-based; settings: in vivo
[5] = tested on: Mus musculus; test: Anti-inflammatory activity against APAP-induced male C57BL/6 mouse model of acute liver injury assessed as upregulation of GCLM mRNA level in liver administered intraperitoneally and measured after 12 hrs by RT-qPCR analysis; type: functional, organism-based; settings: dose 12.5-25 mg/kg, route ip
[6] = tested on: Mus musculus; test: Hepatoprotective activity in APAP-induced male C57BL/6 mouse model of acute liver injury assessed as attenuation of catalase (CAT) level in liver at 12.5 to 25 mg/kg, ip measured after 12 hrs; type: functional, organism-based; settings: dose 12.5-25 mg/kg
[7] = molecular target: T1, Nuclear factor erythroid 2-related factor 2 (Mus musculus); test: Activation of Nrf2 in LPS-stimulated mouse AML12 cells assessed as upregulation of GCLM mRNA expression incubated for 16 hrs by RT-qPCR analysis; type: cell-based; settings: filed as activator, dose 0.5-10 µM
[8] = Toxicity in C57BL/6J mouse assessed as histopathological change in cardiovascular tissue at 25 mg/kg, ip by H and E staining based analysis; type: organism-based; settings: in vivo
[9] = tested on: Mus musculus; test: Anti-inflammatory activity against APAP-induced male C57BL/6 mouse model of acute liver injury assessed as upregulation of HO-1 mRNA level in liver administered intraperitoneally and measured after 12 hrs by RT-qPCR analysis; type: functional, organism-based; settings: dose 12.5-25 mg/kg, route ip
[10] = tested on: Mus musculus; test: Anti-inflammatory activity in APAP-induced Nrf2 knockout male C57BL/6 mouse model of acute liver injury assessed as increase in MPO positive cells in liver at 25 mg/kg, ip preadministered with compound followed by APAP induction and measured after 12 hrs by staining based analysis; type: functional, organism-based
[11] = molecular target: T1, Nuclear factor erythroid 2-related factor 2 (Mus musculus); test: Activation of Nrf2 in LPS-stimulated mouse AML12 cells assessed as upregulation of Akr1c1 mRNA expression incubated for 16 hrs by RT-qPCR analysis; type: cell-based; settings: filed as activator, dose 0.5-10 µM
[12] = Toxicity in C57BL/6J mouse assessed as histopathological change in splenic tissue at 25 mg/kg, ip by H and E staining based analysis; type: organism-based; settings: in vivo
[13] = tested on: Mus musculus; test: Hepatoprotective activity in APAP-induced Nrf2 knockout male C57BL/6 mouse model of acute liver injury assessed as effect on ALT level in liver at 25 mg/kg, ip preadministered with compound followed by APAP induction and measured after 12 hrs; type: functional, organism-based
[14] = Drug concentration in liver of APAP-induced acute liver injury male C57BL/6 mouse model at 25 mg/kg, ip pre-administered with compound for 1 hr followed by APAP induction and measured after 12 hrs by Mass spectrometric analysis; type: ADME, organism-based; settings: read-out: Ct
[15] = tested on: Mus musculus; test: Anti-inflammatory activity in APAP-induced C57BL/6 mouse model of acute liver injury assessed as reduction in IL-6 mRNA level in liver at 12.5 to 25 mg/kg, ip measured after 12 hrs by ELISA; type: functional, organism-based; settings: dose 12.5-25 mg/kg
[16] = tested on: Mus musculus; test: Hepatoprotective activity in APAP-induced male C57BL/6 mouse model of acute liver injury assessed as reduction in ALT level in liver at 12.5 to 25 mg/kg, ip measured after 12 hrs; type: functional, organism-based; settings: dose 12.5-25 mg/kg
[17] = molecular target: T1, Nuclear factor erythroid 2-related factor 2 (Mus musculus); test: Activation of Nrf2 in LPS-stimulated mouse AML12 cells assessed as upregulation of HO-1 mRNA expression incubated for 16 hrs by RT-qPCR analysis; type: cell-based; settings: filed as activator, dose 0.5-10 µM
[18] = tested on: Mus musculus; test: Hepatoprotective activity in APAP-induced male C57BL/6 mouse model of acute liver injury assessed as reduction in AST level in liver at 12.5 to 25 mg/kg, ip measured after 12 hrs; type: functional, organism-based; settings: dose 12.5-25 mg/kg
[19] = tested on: Mus musculus; test: Anti-inflammatory activity against APAP-induced male C57BL/6 mouse model of acute liver injury assessed as restoration of HO-1 protein level in liver at 12.5 to 25 mg/kg, ip measured after 12 hrs by Western blot analysis; type: functional, organism-based; settings: dose 12.5-25 mg/kg
[20] = Drug concentration in plasma of APAP-induced acute liver injury male C57BL/6 mouse model at 12.5 mg/kg, ip pre-administered with compound for 1 hr followed by APAP induction and measured after 12 hrs by Mass spectrometric analysis; type: ADME, organism-based
[21] = tested on: Mus musculus; test: Anti-inflammatory activity against APAP-induced male C57BL/6 mouse model of acute liver injury assessed as restoration of GCLM protein level in liver at 12.5 to 25 mg/kg, ip measured after 12 hrs by Western blot analysis; type: functional, organism-based; settings: dose 12.5-25 mg/kg
[22] = Toxicity in C57BL/6J mouse assessed as histopathological change in hepatic tissue at 25 mg/kg, ip by H and E staining based analysis; type: organism-based; settings: in vivo
[23] = tested on: Mus musculus; test: In vivo induction of Nrf2 nuclear translocation in APAP-induced male C57BL/6 mouse model of acute liver injury assessed as increase in nuclear Nrf2 level at 12.5 to 25 mg/kg, ip measured after 12 hrs by Western blot analysis; type: functional, organism-based; settings: dose 12.5-25 mg/kg
[24] = tested on: Mus musculus; test: Anti-inflammatory activity in APAP-induced C57BL/6 mouse model of acute liver injury assessed as reduction in neutrophil invasion in liver at 12.5 to 25 mg/kg, ip measured after 12 hrs by immunohistochemical staining based analysis; type: functional, organism-based; settings: dose 12.5-25 mg/kg
[25] = tested on: Mus musculus; test: Hepatoprotective activity in APAP-induced Nrf2 knockout male C57BL/6 mouse model of acute liver injury assessed as effect on AST level in liver at 25 mg/kg, ip preadministered with compound followed by APAP induction and measured after 12 hrs; type: functional, organism-based
[26] = AUC (0 to t) last in Sprague-Dawley rat at 1 mg/kg, iv; type: ADME, organism-based; settings: in vivo

Activity [1]: Dose-dependent-effect
bioavailability [3]: 19.9%
Tmax [4]: 1.5 h
Activity [7]: Dose-dependent-effect
Activity [11]: Dose-dependent-effect
Activity [17]: Dose-dependent-effect
AUCt [26]: 3869 ng·h/mL
SMILES: COc1ccc(-c2cc(=O)c3ccc(NS(=O)(=O)c4ccc(F)cc4)cc3o2)cc1
Activity [2]: Active
Activity [5]: Dose-dependent-effect
Activity [6]: Active
Activity [8]: Non-toxic
Activity [9]: Dose-dependent-effect
Activity [10]: inactive
Activity [12]: Non-toxic
Activity [13]: No effect
concentration at 13 h [14]: 485 ng/g
Activity [15]: Active
Activity [16]: Active
Activity [18]: Active
Activity [19]: Active
concentration at 13 h [20]: 50 ng/mL
Activity [21]: Active
Activity [22]: Non-toxic
Activity [23]: Active
Activity [24]: Active
Activity [25]: No effect
